Series [1] is described as follows: DPPH radical scavenging assay. Format: biochemical. Particulars: 30 min, 517 nm. The procedure: To estimate the Carbazole derivatives' antioxidant potential, a solution of each compound (1 mM/mL) in methanol was serially diluted with methanol to obtain a concentration of 1, 2, 5, 10, 20, 50, and 100 µM/mL. Then, DPPH (2,2-diphenyl-1-picrylhydrazyl) reagent (Sigma, USA) was dissolved in 0.002% w/v methanol and mixed with the previously prepared working concentrations in a 1:1 ratio. The same procedures were repeated for Trolox (Sigma-Aldrich, Denmark), which was used as a positive control. All of the solutions were kept in the dark chamber for 30 min at an ordinary temperature. Then, their absorbance values were measured at a wavelength of 517 nm utilizing a UV–visible spectrophotometer. The DPPH inhibition potentials by Carbazole derivatives and Trolox were determined employing the following equation: DPPH inhibition(\%)=abs(blank)-abs(sample)/abs(blank)∗100\% where absblank is the blank absorbance and abssample is the absorbance of the samples [58]. The antioxidant half-maximal inhibitory concentration (IC50) of the synthesized carbazole derivatives and Trolox were assessed by using an online tool “Quest Graph™ IC50 Calculator.” AAT Bioquest, Inc., 25 May. 2023, https://www.aatbio.com/tools/ic50-calculator.

Series [2] relates to MCF-7 cell line. The series can be described thus: MTT cell viability, MCF-7 cancer cell line. Conditions: for IC50: Homo sapiens, MCF7, MTT, 48 h, read-out: IC50 values Carbazole Derivatives Effect on MCF-7 Cell Line; for selective index (SI): L929 vs MCF-7. It counts as cell-based. The procedure: MCF-7 cancer cell lines were cultured at Dulbecco’s Modified Eagle Medium High Glucose (DMEM) (EuroClone, Via Figino, Italy); fetal bovine serum (FBS) and MTT (3-(4,5-Dimethylthiazol-2-yl)-2,5-Diphenyl Tetrazolium Bromide) were provided by Sigma-Aldrich (Darmstadt, Germany); ApopNexin Annexin-V-FITC with PI Apoptosis Kit was obtained from Merck (Darmstadt, Germany); Total RNA Isolation Kit was provided by Analytic Jena (Jena, Germany), SensiFast cDNA Synthesis Kit was provided by Meridian Bioscience (Cincinati, USA), SybrGreen Master Mix was obtained from EuroClone (Via Figino, Italy).
(§1) Cells (MCF-7 and L929) were incubated in 75 cm^2 sterile flasks with 10% FBS, 100 U/mL penicillin, and 100 µg/mL streptomycin. The cells were grown at 37 ^○C in 5% CO2, and MTT was used to screen the viability of the cells. Cells were seeded at a density of 10^4 cells per well. The cells were then cultured for 24 h in 100 µl of DMEM complete medium. After pretreatment with different concentrations of the compounds for 48 h, 10 µl of 5 mg/mL MTT solution was added to each well and incubated for 4 h at 37 ^○C, and 100 µl of DMSO was used in each well to dissolve the blue formazan crystals. Then, the absorbance was measured at 570 nm. The cell viability percentages of compound 4o against MCF-7 cancer cell lines and L929 normal cell lines were presented in Fig. 2 in comparison with doxorubicin anticancer agent.

The test system of series [3] is L929 normal cell lines. The series can be described thus: MTT cell viability, L929 normal cell line. Format: cell-based. Conditions: Mus musculus, 48 h. The procedure: as §1
The test system of series [4] is MCF-7 cells. Nature of the series: Annexin-V-FITC/PI apoptosis assay by flow cytometry. It counts as cell-based. Conditions: for total dead cells: MCF-7, sum of pre-apoptotic, post-apoptotic and necrosis. The procedure: FITC Annexin-V apoptosis detection kit with PI, ApopNexinTM FITC (APT750, Merk, Germany) was used for apoptosis assay. MCF-7 cells were seeded into a 6-well plate (1 × 10^6 cells per well). Then, the cells were incubated with the compounds at the cytotoxic concentration by employing a cell viability assay. Apoptotic cells were cultured with the compounds, the medium was removed after incubation, and the cells were washed twice with 5 mL of pre-chilled phosphate-buffered saline. Cells washed with PBS were lifted with Trypsin–EDTA and centrifuged at 400 rpm for 5 min. The resulting cells were each treated with 1 mL of cold 1-X Binding Buffer (Sigma Aldrich, USA). Then, 200 μL of the mixture was taken and placed in a flow cytometry tube, and the other part containing cells was kept on ice. First, 3 µl of ApopNexinTM FITC and 2 µl of 100X propidium iodide (PI) (P4170, Sigma Aldrich, USA) were added to the solution taken into the sample tube and mixed. The resulting mixture was incubated for 15 min in the dark at room temperature. At the end of the incubation, the samples were measured in flow cytometry (Beckman Coulter Cytoflex) and data were obtained.

Series [5] deals with MCF-7 cells. Nature of the series: Cell cycle analysis by flow cytometry. It counts as cell-based. The source says: The manufacturer protocol (Sigma-Aldrich Mak344 Cell Cycle Analysis Kit) was used to perform cell cycle experiments and analyzed by flow cytometry (Beckman Coulter Cytoflex).
In series [6] the test system is Staphylococcus aureus. The series can be described thus: MIC and MBC test, S. aureus. Format: cell-based. Particulars: Staphylococcus aureus. The procedure:
(§2) Using Muller Hinton agar medium, the antibacterial activity was evaluated by using 24 h cultures of Escherichia coli, Staphylococcus aureus, and Candida albicans. E. coli and S. aureus were incubated in 1% Mueller Hinton Broth (MHB) liquid medium at 37 °C for 24 h; C. albicans was incubated in Sabouraud Dextrose Broth (SDB) at 30 °C for 48 h. MIC (Minimum Inhibitory Concentration) and MBC (Minimum Bactericidal Concentration) tests were performed to determine antimicrobial activity. This stage was carried out in a sterile cabinet.
(§3) The density of microorganisms in fresh cultures was adjusted according to the MacFarland 0.5 scale. For that, the microorganisms were centrifuged at 4000 rpm for 20 min. The supernatant was poured off, and the pellet was washed with 1 mL of 0.9% NaCl solution (physiological saline). The centrifugation was then repeated. The pellet was dissolved again with saline solution and adjusted to 0.5 MacFarland. In the experiment performed in a sterile 96-well plate, compound 4o was diluted ½ with DMSO to prepare a stock solution. In the first, 100 µl of medium and 100 µl of compound 4o as initial dilutions. Dilution was performed seven times at a ratio of ½. Then, 5 µl of fresh microorganism cultures prepared as MacFarland 0.5 were inoculated. The control group was prepared as 100 µl medium, 100 µl distilled water, and 5 µl microorganisms. The plates were incubated at 37 °C and 30 °C for 24 h.
(§4) After incubation, 10 µl of the sample was taken, dropped onto the respective media, and incubated for 24 h at appropriate temperatures to clearly distinguish the residues left by the compound 4o and the growth of microorganisms. Mueller Hinton Agar (MHA) was used for E. coli and S. aureus, and Potato Dextrose Agar (PDA) was used for C. albicans. After incubation, MIC and MBC values were determined. The first well with a significant decrease in growth was considered as MIC, and the first well with no growth was considered as MBC [59, 60].

For series [7], the system named is Escherichia coli. The series can be described thus: MIC and MBC test, E. coli. It counts as cell-based. Conditions: Escherichia coli. The procedure:
as §2, §3, §4

Series [8] has as its system Candida albicans. The series can be described thus: MIC and MBC test, C. albicans. Format: cell-based. The procedure:
as §2, §3, §4

On the set-up of series [9]: method as in PMID 37328860. Conditions: previous preliminary work; read-out: Antioxidant IC50 against DPPH; cited from earlier work.
The test system of series [10] is HeLa cancer cell lines. Further details: method as in PMID 37328860. Conditions: previous preliminary work; read-out: anticancer IC50 HeLa; cited from earlier work.
For series [11], the system named is MCF-7 cancer cell lines. Further details: method as in PMID 37328860. Conditions: previous preliminary work; read-out: anticancer IC50 MCF-7; cited from earlier work.

Data on five compounds can be found in article PMC11110238, “Synthesis of novel carbazole hydrazine-carbothioamide scaffold as potent antioxidant, anticancer and antimicrobial agents” (BMC Chemistry, 2024).

Converted amounts (≈) assume the structure as drawn. Where two headings read alike, the source gives them in different places.

Take `O=C(Cn1c2ccccc2c2ccccc21)NNC(=S)NC(=O)c1ccccc1` [Compound 4o, N-(2-(2-(9H-carbazol-9-yl)acetyl)hydrazine-1-carbonothioyl)benzamide]: the IC50 in series [1] stood at 158 ± 2.54 µM; in series [2] it was 2.02 ± 0.04 µM; in [3], 37.8 µM. The “selective index (SI)” value in [2] was found to be 18.70. Moreover, the induction of apoptosis result in series [4] (MCF-7) is “drives MCF-7 cells to apoptosis”. This compound had a necrosis cell population in series [4] (MCF-7, cytotoxic concentration) of 3.69%. This compound also registered a post-apoptotic cell population in series [4] (MCF-7, cytotoxic concentration) of 4.33%. This compound had a pre-apoptotic cell population in [4] (MCF-7, cytotoxic concentration) of 8.20%. Also, the viable cell population in [4] (MCF-7, cytotoxic concentration) was 83.78%. This compound also yielded a total dead cells in series [4] of 16.22%. In addition, the cell cycle arrest result in [5] is “cell cycle arrest in the MCF-7 cell line in the G2/M phase”. For the same compound, the MIC in series [6] was determined as 1.56 µM (≈ 0.628 µg/mL); in series [7] (read-out: MIC), 1.56 µM (≈ 0.628 µg/mL); in series [8], 0.39 µM (≈ 0.157 µg/mL). For the same compound, the values for the MBC in [6] (read-out: MBC), in series [7] (read-out: MBC) and in series [8] were 1.56 µM (≈ 0.628 µg/mL), 1.56 µM (≈ 0.628 µg/mL) and 0.39 µM (≈ 0.157 µg/mL), respectively.
With `COc1cccc2c1C(=O)c1c(O)c3c(c(O)c1C2=O)C[C@@](O)(C(=O)CO)C[C@@H]3O[C@H]1C[C@H](N)[C@H](O)[C@H](C)O1` [Doxorubicin, reference compound], in [2], the IC50 was found to be 5.06 ± 0.21 µM and the “selective index (SI)” value came to 3.82. Moreover, in series [3], the IC50 was 19.3 µM. The compound also had a total dead cells in series [4] of 14.50%.
For `COc1ccc(S(=O)(=O)NNC(=O)Cn2c3ccccc3c3ccccc32)cc1` [St.1], the IC50 in series [9] is 1.05 µM.
For `O=C(Cn1c2ccccc2c2ccccc21)N/N=C1\SCC(=O)N1c1ccc(Cl)cc1` [St.2], the results for the IC50 in [9], in series [10] and in [11] were 5.15 µM, 7.59 µM and 18.4 µM, respectively.
For the compound `O=C(c1ccc(F)cc1)n1nc(Cn2c3ccccc3c3ccccc32)oc1=O` [St.3], the IC50 is 17.2 µM in series [10] and 6.44 µM in series [11].
